Measurements from patent publication US20240228487A1, “FUSED HETEROCYCLIC COMPOUND AND APPLICATION THEREOF, PHARMACEUTICAL COMPOSITIONS CONTAINING SAME AND APPLICATION THEREOF” (ZHEJIANG UNIVERSITY, priority 2021, published 2024).

Assays:
[1] = tested on: dopaminergic neurons differentiated from iPSC derived from disseminated PD patients; assay: cell viability (cell titer glo) of iPSC differentiated dopaminergic neurons; type: cell-based, human; conditions: II-23 0.6 μM, ACA 0.5 μM, from day 15 of culture; CTG kit
Description: Using normal and disseminated PD patient-derived induced pluripotent stem cells (iPSC), performing drug interventions using the TRPM2 inhibitors ACA and II-23 after they were induced and differentiated into mature dopaminergic neurons, the drug treating method is as follows: • a. Calculating the materials for the experiment, and starting preparing when the dopaminergic neurons are differentiated to the 8th day. The petri dishes should be treated with 33 μg/mL PDL overnight and washed with sterilized water. After drying, 2 μg/mL of laminin was added and incubated overnight. Both PDL and laminin can be recycled for reuse. • b. Digesting and collecting the differentiated cells with Accutase, and counting with a cell counting plate, and then diluting to 500,000/mL with maturation medium (Y-27632 should be added). Fluorescence confocal imaging was performed using a confocal dish inoculated with 2 mL/dish, and cell viability assays were performed using a 96-well plate inoculated with 100 μL/well. Taking this time point as the 10th day, changing to Y-27632-free medium on the 11th day, and changing the medium every two days. • c. When the cells were cultured to the 15th day, treating the drugs to a final concentration with the medium, the working concentration of ACA is 0.5 μM, and the working concentration of II-23 is 0.6 μM, and the drug-containing medium was changed every four days. […]

[2] = tested on: dopaminergic neurons differentiated from iPSC derived from disseminated PD patients; assay: mitochondrial fusion morphology (Mitotracker, Girk2 labeling) of iPSC differentiated dopaminergic neurons; type: cell-based, human; conditions: II-23 0.6 μM, ACA 0.5 μM; Mitotracker staining, Girk2-positive neurons
Description: Using normal and disseminated PD patient-derived induced pluripotent stem cells (iPSC), performing drug interventions using the TRPM2 inhibitors ACA and II-23 after they were induced and differentiated into mature dopaminergic neurons, the drug treating method is as follows: • a. Calculating the materials for the experiment, and starting preparing when the dopaminergic neurons are differentiated to the 8th day. The petri dishes should be treated with 33 μg/mL PDL overnight and washed with sterilized water. After drying, 2 μg/mL of laminin was added and incubated overnight. Both PDL and laminin can be recycled for reuse. • b. […] Fluorescence confocal imaging was performed using a confocal dish inoculated with 2 mL/dish, and cell viability assays were performed using a 96-well plate inoculated with 100 μL/well. […]
Positive dopamine neurons were labeled with a dopaminergic neuron marker molecule Girk2 antibody susceptible for SNc, and cellular mitochondria were labeled with the mitochondrial dye mitotracker as in FIG. 15. […] Finally, performing the fluorescence imaging: removing the secondary antibody, and washing three times with 1×PBS, adding 50% Glycerol for fluorescence protection, and then imaging with a Zeiss LSM880 laser confocal microscope, as shown in FIG. 15.

[3] = tested on: WT (TRPM2+/+) and TRPM2 knockout (TRPM2-/-) mice, tMCAO; assay: tMCAO in WT and TRPM2 knockout mice given autophagy inhibitor; type: in vivo, mouse; conditions: FIG. 12
From the text: After isoflurane inhalation gas anesthesia of 22-25 g male WT mice (TRPM2+/+) and TRPM2 knockout (TRPM2−/−) mice, the fiber-optic probes of laser Doppler flowmeter were fixed to the skull of the animals with glue and used to monitor the cerebral blood flow of the middle cerebral artery (MCA) supplying cortex.
The mice were fixed in the supine position, and the middle of the neck was dehaired and routinely sterilized with 75% alcohol. […] Only animals whose blood flow values decreased to 20% of the basic value were selected according to the blood flow data monitored by the flowmeter. […]
The mice were decapitated 24 h after ischemia-reperfusion, the coronal planes of the brains were cut into brain slices of about 2 mm thickness uniformly. […] The processed brain slices were photographed using a macro camera, and Image J image analysis software was used to calculate and count the cerebral infarct volume, and the measured results are shown in FIG. 11. […]

Row | Compound | cell viability of differentiated dopaminergic neurons derived from disseminated PD patients [1] | excessive mitochondrial fusion in dopaminergic neurons derived from PD patients [2] | cerebroprotective effect of reduced TRPM2 levels during cerebral ischemia reperfusion [3]
1 | CCCCCc1ccc(/C=C/C(=O)Nc2ccccc2C(=O)O)cc1 [ACA, reference compound] | restored | reversed | 
2 | Cn1cnc(N)c2ncnc1-2 [Compound 3-MA] |  |  | reversed
